Some test systems named below: MCF7; SK-MEL-28; NCI/ADR-RES; 786-0; COLO 205; CCRF-CEM; T47D; Malme-3M; MDA-MB-435; HCT-15; SW-620; ACHN; SN12C; OVCAR-8; NCI-H522; BT-549; SNB-75; A549; DU-145; HOP-92.
Common to all, as to test: growth of human tumour cells (NCI), 48 h

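Compound exposure: 48 hours, 5 concentrations, 96-well plates. Here, GI50 denotes the concentration required for 50% inhibition of growth.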 Active and inactive are the calls of the source. No stated cut-off is given here; in the data, active = GI50 up to about 1.1 µM and inactive = higher.

We go through 11 compounds from ChEMBL document CHEMBL1201862, “PubChem BioAssay data set” (2004).

For the compound `Nc1ccc(Cc2ccc(/N=C\c3ccc(OCc4cccc(COc5ccc(/C=N\c6ccc(Cc7ccc(N)cc7)cc6)cc5)n4)cc3)cc2)cc1`, the GI50 was > 100 µM (inactive) in the test on MCF7; > 100 µM (inactive) in the test with SK-MEL-28; > 100 µM (inactive) with NCI/ADR-RES; 65.9 µM (inactive) in the test on 786-0; > 100 µM (inactive) in the test on COLO 205; > 100 µM (inactive) with CCRF-CEM. Besides, the GI50 with T47D is 68.9 µM (inactive); in the test with Malme-3M, 63.1 µM (inactive); in the test on MDA-MB-435 it was > 100 µM (inactive); in the test with HCT-15, more than 100 µM; in the test on SW-620 it was > 100 µM (inactive); with ACHN it was > 100 µM (inactive). Moreover, the GI50 was > 100 µM (inactive) in the test with SN12C; 62.8 µM (inactive) in the test with OVCAR-8; > 100 µM (inactive) in the test on NCI-H522; > 100 µM (inactive) in the test with BT-549; 13.2 µM (inactive) in the test with SNB-75; > 100 µM (inactive) in the test with A549. In addition, the GI50 in the test with DU-145 was > 100 µM (inactive).

`CCOC(=O)Cc1nc2c(N)ncnc2n1C1OC(COC(C)=O)C(OC(C)=O)C1OC(C)=O` (stereo unspecified): the GI50 in the test on MCF7, in the test on SK-MEL-28, with NCI/ADR-RES, in the test with 786-0, in the test on COLO 205 and in the test on CCRF-CEM was > 100 µM (inactive) throughout. Further, the GI50 in the test on T47D was > 100 µM (inactive); in the test with Malme-3M, > 100 µM (inactive); in the test with MDA-MB-435, > 100 µM (inactive); in the test with HCT-15, more than 100 µM; in the test on SW-620, > 100 µM (inactive); with ACHN it was > 100 µM (inactive). The GI50 in the test on SN12C, in the test with OVCAR-8, in the test with NCI-H522, with BT-549, in the test on A549 and in the test on DU-145 was > 100 µM (inactive) in each case. Moreover, in the test on HOP-92, the GI50 is 83.9 µM (inactive).

Take `CCCCCC/C=C\CCCCCCCCCc1cccc(OC)c1O`: the GI50 with MCF7 was 75.5 µM (inactive); with SK-MEL-28, > 100 µM (inactive); in the test on NCI/ADR-RES, 41.2 µM (inactive); with 786-0, > 100 µM (inactive); in the test with COLO 205 it was > 100 µM (inactive); in the test on CCRF-CEM it was > 100 µM (inactive). Moreover, the GI50 with T47D is > 100 µM (inactive); in the test with Malme-3M, > 100 µM (inactive); with MDA-MB-435 it was > 100 µM (inactive); in the test with HCT-15, more than 100 µM; in the test with SW-620 it was > 100 µM (inactive); in the test on ACHN, > 100 µM (inactive). The GI50 in the test with SN12C was > 100 µM (inactive); in the test on OVCAR-8, 38.3 µM (inactive); with NCI-H522, 47.1 µM (inactive); with BT-549, > 100 µM (inactive); with SNB-75, > 100 µM (inactive); in the test with A549, > 100 µM (inactive). Moreover, in the test with DU-145, the GI50 is > 100 µM (inactive).

Consider `O=c1[nH]nc(Cc2ccc(Cl)cc2)n1CCO`, for which the GI50 with MCF7, in the test on SK-MEL-28, in the test with NCI/ADR-RES, in the test with 786-0, in the test with COLO 205 and in the test on T47D was > 100 µM (inactive) each time. Further, the GI50 is > 100 µM (inactive) in the test on Malme-3M; > 100 µM (inactive) in the test with MDA-MB-435; more than 100 µM in the test on HCT-15; > 100 µM (inactive) with SW-620; > 100 µM (inactive) in the test on ACHN; > 100 µM (inactive) in the test with SN12C. The GI50 in the test with OVCAR-8, with NCI-H522, in the test with BT-549, in the test with A549, in the test on DU-145 and in the test with HOP-92 was > 100 µM (inactive) each time.

Turning to `O=C(NNC(=O)c1ccc(Cl)cc1NC(=O)C12CC3CC(CC(C3)C1)C2)c1ccc(Cl)cc1`, the GI50 in the test on MCF7 was 27.9 µM (inactive); with NCI/ADR-RES it was 24.8 µM (inactive); in the test with 786-0, 22.5 µM (inactive); in the test on COLO 205 it was 14.5 µM (inactive); in the test on CCRF-CEM, 23.4 µM (inactive); in the test with T47D it was 27.9 µM (inactive). For the same compound, the GI50 was 11.4 µM (inactive) in the test with Malme-3M; 18.6 µM (inactive) in the test with MDA-MB-435; 17.5 µM with HCT-15; 32.1 µM (inactive) with SW-620; 23.6 µM (inactive) in the test with ACHN; 27.7 µM (inactive) with SN12C. In addition, the GI50 with OVCAR-8 was 32.7 µM (inactive); with NCI-H522, 14.7 µM (inactive); in the test with BT-549 it was 41.7 µM (inactive); in the test with A549 it was 19.5 µM (inactive); with DU-145 it was 22.8 µM (inactive); in the test with HOP-92, 17.5 µM (inactive).

As for `Cc1nn(C(=O)c2ccncc2)c2c1C(c1ccccc1[N+](=O)[O-])SC(=N)N2` (stereo unspecified), the GI50 in the test with MCF7 was > 10 µM (inactive); with SK-MEL-28 it was > 10 µM (inactive); in the test with NCI/ADR-RES, > 10 µM (inactive); in the test with 786-0 it was > 10 µM (inactive); with COLO 205 it was > 10 µM (inactive); in the test on CCRF-CEM, 8.24 µM (inactive). Also, the GI50 in the test with T47D was > 10 µM (inactive); in the test with Malme-3M it was > 10 µM (inactive); with MDA-MB-435 it was > 10 µM (inactive); with HCT-15, more than 10 µM; with SW-620, > 10 µM (inactive); in the test on ACHN it was > 10 µM (inactive). Besides, the GI50 in the test on SN12C, with OVCAR-8, in the test with BT-549, with SNB-75, in the test with A549 and with DU-145 was > 10 µM (inactive) each time. Also, the GI50 in the test with HOP-92 is > 10 µM (inactive).

In the case of `C=CCSC1=N/C(=C\c2ccco2)C(=O)N1CC=C`, the GI50 is 16.6 µM (inactive) with MCF7; 72.4 µM (inactive) in the test with SK-MEL-28; 85.7 µM (inactive) in the test on NCI/ADR-RES; > 100 µM (inactive) in the test on 786-0; 83.6 µM (inactive) with COLO 205; 42.6 µM (inactive) in the test with CCRF-CEM. Also, the GI50 with T47D is 28.2 µM (inactive); with Malme-3M, > 100 µM (inactive); in the test on MDA-MB-435, 52.5 µM (inactive); in the test with HCT-15, 57.9 µM; in the test with SW-620, > 100 µM (inactive); in the test with ACHN, 34.1 µM (inactive). The GI50 is > 100 µM (inactive) in the test on SN12C; > 100 µM (inactive) with OVCAR-8; 43.9 µM (inactive) in the test on NCI-H522; 46.1 µM (inactive) with BT-549; 79.1 µM (inactive) with A549; 90.4 µM (inactive) in the test on DU-145. Moreover, the GI50 in the test on HOP-92 is 55.2 µM (inactive).

As for `O=C1c2cc(Cl)ccc2-n2cnnc2C2CSCN12` (stereo unspecified), the GI50 in the test on MCF7, with SK-MEL-28, with NCI/ADR-RES, in the test on 786-0, with COLO 205 and with CCRF-CEM was > 100 µM (inactive) throughout. Further, the GI50 in the test on T47D is > 100 µM (inactive); in the test on Malme-3M, > 100 µM (inactive); in the test on MDA-MB-435 it was > 100 µM (inactive); in the test with HCT-15, more than 100 µM; in the test with SW-620, > 100 µM (inactive); in the test on ACHN, > 100 µM (inactive). Further, the GI50 in the test with SN12C, in the test on OVCAR-8, in the test on NCI-H522, in the test with BT-549, with SNB-75 and in the test on A549 was > 100 µM (inactive) each time. Also, the GI50 in the test on DU-145 is > 100 µM (inactive).

Consider `CC(=O)OCCn1c(Cc2ccc(C)cc2)nn(C(C)=O)c1=O`, for which the GI50 with MCF7, with SK-MEL-28, in the test on NCI/ADR-RES, in the test with 786-0, with COLO 205 and in the test on T47D was > 100 µM (inactive) throughout. Further, the GI50 is > 100 µM (inactive) with Malme-3M; > 100 µM (inactive) in the test with MDA-MB-435; more than 100 µM in the test on HCT-15; > 100 µM (inactive) with SW-620; > 100 µM (inactive) with ACHN; > 100 µM (inactive) in the test with SN12C. Also, the GI50 in the test on OVCAR-8, with NCI-H522, in the test with BT-549, in the test with A549, in the test with DU-145 and in the test with HOP-92 was > 100 µM (inactive) each time.

As to `COc1ccccc1-c1cc(O)c2cccnc2n1`, the GI50 in the test on MCF7 is 6.59 µM (inactive); in the test on SK-MEL-28, 82 µM (inactive); in the test on NCI/ADR-RES, 37 µM (inactive); in the test on 786-0, 76 µM (inactive); in the test on COLO 205, 24.8 µM (inactive); in the test on CCRF-CEM, 22.9 µM (inactive). In addition, the GI50 in the test on T47D is 69.7 µM (inactive); with Malme-3M it was 37.8 µM (inactive); in the test with MDA-MB-435, 23.4 µM (inactive); with HCT-15 it was 23.7 µM; in the test with SW-620 it was 30.1 µM (inactive); in the test with ACHN, 64.1 µM (inactive). Besides, the GI50 was 50.2 µM (inactive) in the test on SN12C; 37.7 µM (inactive) in the test on OVCAR-8; 46.9 µM (inactive) in the test on NCI-H522; 22.2 µM (inactive) in the test on BT-549; 55 µM (inactive) with A549; > 100 µM (inactive) with DU-145. Besides, the GI50 in the test on HOP-92 was 7.89 µM (inactive).

For `CN1C/C(=C\c2cccs2)C2=NN(C)C(c3cccs3)C2C1` (stereo unspecified), the GI50 in the test on MCF7 is 75.5 µM (inactive); in the test on SK-MEL-28, > 100 µM (inactive); in the test on NCI/ADR-RES, > 100 µM (inactive); in the test with 786-0 it was > 100 µM (inactive); with COLO 205 it was > 100 µM (inactive); in the test on CCRF-CEM, 72.8 µM (inactive). The GI50 in the test on T47D was 44.4 µM (inactive); in the test on Malme-3M, > 100 µM (inactive); with MDA-MB-435, > 100 µM (inactive); in the test with HCT-15, more than 100 µM; with SW-620, > 100 µM (inactive); in the test on ACHN, > 100 µM (inactive). Besides, the GI50 with SN12C was 95.7 µM (inactive); in the test on OVCAR-8, > 100 µM (inactive); with NCI-H522, 81.3 µM (inactive); with BT-549, > 100 µM (inactive); with A549, 89.3 µM (inactive); in the test on DU-145 it was > 100 µM (inactive). The GI50 with HOP-92 is 20.5 µM (inactive).
